Assay results published in US6472541B2, “Protecting groups with increased photosensitivities” (The Regents of the University of California, priority 1998, dated 2002).
Marks after values point to notes of the source that are not given here.

Key:
[1] = Mechanism of photolysis (triplet state lifetime); format: physicochemical
From the text: The halogenated coumarin derivatives have good dark stability, and high one-photon and two-photon uncaging efficiencies. Without being bound to any particular theory, halogenation of the coumarin may have increased the two-photon cross-sections by lowering the pKa of the chromophore below physiological pH and promoting formation of the more strongly absorbing anion. Also, the heavy atoms may promote intersystem crossing to the triplet, which is believed to be the photochemically reactive state. […] The mechanism of photolysis of compound 7 and compound 23 indicate that the solvolysis occurs via the triplet state with a lifetime of about 1 μs. […] Although compound 6 had the highest cross-section, its photolysis was complicated by multiple secondary photoproducts. The monobromo compound (compound 5) was much more tractable and easily formed caged compounds.

brain slices = assay: Two-photon infrared uncaging on brain slices, whole-cell recordings
Method: A map was created where the brightness at each picture element was proportional to the maximum current recorded with the laser focused at that position.
Two-photon infrared uncaging on brain slices was also carried out. […] The stream of pulses from the Ti:sapphire laser was raster-scanned across cell bodies and dendrites.

[2] = In vitro measurements of two-photon uncaging and fluorescence cross-sections; format: physicochemical; settings: measured at 780 nm on an independent apparatus
[3] = One-photon photolysis quantum efficiency (UV irradiation, HPLC analysis); format: physicochemical; settings: 365 nm
Method: (§1) The electronic absorption and emission properties of the compounds were measured and the stability of the compounds toward hydrolysis in the dark was tested. Stability in the dark can be used to help identify photolabile protecting groups that can be used in a variety of different conditions. Specifically, the quantum efficiencies for one-photon excitation and rates of hydrolysis in the dark were determined.
[…] The duration of each irradiation period was controlled by an electronic shutter. Between each irradiation, a small aliquot (10 μL) of the solution was removed for analysis by reversed phase HPLC with a Betabasic-18 column eluted with a isocratic mixture of 60% acetonitrile and water containing 0.1% trifluoracetic acid at a flow rate of 0.8 mL/min, using absorbance detection at 325 nm. […] […] Quantum efficiencies were calculated as (Iσt90%)^−1, where I is the irradiation intensity in einsteins (cm^−2s^−1), σ is the decadic extinction coefficient in cm^2mol^−1 (10^3 times ε, the usual extinction coefficient in M^−1cm^−1), and t90% is the irradiation time in seconds for 90% conversion to product. […] Dark hydrolysis rates were measured similarly except without illumination.

rat cortical neurons = assay: One-photon UV uncaging of caged glutamate on brain slices, neuronal responses; format: cell-based; settings: one-photon UV uncaging at 365 nm, 10 mW, average
Method: The photolabile protecting groups can be uncaged by one-photon or two-photon photolysis. One-photon ultraviolet uncaging experiments were carried out on brain slices. In particular, compound 7 was used to deliver glutamate to rat cortical neurons. One-photon UV uncaging of caged glutamate compound at 365 nm released the glutamate. Neuronal responses were measured after directly stimulating cells as described in Sawatari and Callaway, Nature 380:442-446 (1996). The cells were exposed to compound 7 (Bhc-Glu) or γ-(α-carboxy-2-nitrobenzyl)glutamate, trifluoroacetate salt (compound 1, CNB-glutamate). The one-photon uncaging was carried out as described in FIG. 1 depicts the lower power needed to uncage compound 7 (Bhc-Glu) in the neuron sample in comparison to compound 1 (alpha-carboxy nitrobenzyl-caged glutamate, CNB-Glu). At 10 mW the compound 7-stimulated neurons respond, on average, at amplitudes 80% of their maximum, while compound 1-stimulated neurons are responding at less than 20% of their maximum amplitudes.

[4] = In vitro measurements of two-photon uncaging and fluorescence cross-sections; format: physicochemical; settings: pH 7.2
Method: Measurements of cross-sections for two-photon uncaging were carried out in microcuvettes with cylindrical cavities having a 1 cm path length and 20 μL total volume (Type 26F, Starna). Femtosecond infrared pulses from a mode-locked titanium-sapphire laser (Spectra-Physics TSUNAMI, pumped by a Spectra-Physics MILLENNIUM) were aimed along the axis of the sample chamber and focused in its center with a 25 mm focal length lens (06LXP003/076, Melles Griot, Irvine, Calif.) optimized for infrared lasers. The pulse parameters were estimated by replacing the caged compound by a solution of fluorescein, a reference compound of known fluorescence quantum yield Qf2 (0.9) and two-photon absorbance cross-section δaF (30 and 38 GM at 740 and 800 nm respectively). The time-averaged fluorescence <F(t)>collected by the detector is given by equation (1)
<F(t)>=0.5φQf2δaFCF<I0^2(t)>∫S^2(r)dV (1)
where φ is the collection efficiency of the detector, CF is the concentration of fluorescein, <I0^2(t)> is the mean squared light intensity, S(r) is a unitless spatial distribution function, and the integral is over the volume of the microcuvette. The fluorescence emitted at right angles to the laser beam was measured through a 535 nm bandpass filter in front of a silicon photodiode radiometer (IL1700, International Light). The collection efficiency φ was estimated as Ay/(4πR^2n^2), where A is the area of the detector (0.38 cm^2), y is the fraction of the integrated emission spectrum transmitted by the interference filter (0.377), measured separately in a spectrofluorometer, R is the distance from the center of the cuvette to the detector (3.83 cm), and n is the refractive index of water (1.333). For photolysis of a caged compound or substrate, the number NP of molecules of product formed per unit time is (eq. 2):
NP=0.5Qu2δaSCS<I0^2(t)>∫S^2(r)dV (2)
where Qu2, δaS, and CS are the quantum efficiency for two-photon uncaging, absorbance cross-section, and concentration of the substrate, respectively. NP was measured by HPLC sampling of the microcuvette as for the one-photon photolysis. The uncaging action cross-section δu2 (≡Qu2δaS) can therefore be estimated by (eq. 3): [formula]
Similarly, when the substrate is also fluorescent, its two-photon fluorescence action cross-section δf2S (≡Qf2SδaS) can be estimated as (eq. 4): [formula]
Here the subscripts S and F distinguish values for the substrate and for the fluorescein reference. If one assumes that one- and two-photon quantum efficiencies are the same, then δu2/Qu1 and δf2S/Qf1S should both equal δaS. In fact, the former values are typically about twice the latter. All of them are directly proportional to the assumed value of Qf2 for fluorescein.

[5] = Electronic absorption and emission properties; format: physicochemical
Method: Generally, chemicals and solvents were used directly as received unless otherwise noted. Acetonitrile, chloroform and dichloromethane were dried over 4A molecular sieves. Proton magnetic resonance spectra (^1H NMR) were recorded on a Gemini 200 MHz spectrometer (Varian; Palo Alto, Calif.) and reported in ppm (δ) downfield from tetramethylsilane with residual solvent peaks as the internal standards. Ultraviolet spectra were recorded on a Cary 3E UV-Visible spectrophotometer (Varian, Palo Alto, Calif., USA). Fluorescence spectra were recorded on a Fluorolog spectrofluorometer (SPEX; Edison, N.J., USA). Mass spectra were recorded on a electrospray mass spectrometer (5989B, Hewlett-Packard; Palo Alto, Calif., USA). Thin layer chromatography (TLC) and column chromatography were performed on precoated silica gel 60F-254 plates and 230-400 mesh silica gel 60 respectively (EM Separations; Gibbstown, N.J., USA). All manipulations of compounds sensitive to near ultraviolet light were performed under an orange safety lamp.
as §1

- Entry into the cell (brain slices; photolysis map of neuron): did not enter the cell
- δf fluorescence action cross-section for two-photon excitation [2]: 2.2* 10^−50 cm^4s/photon
- Qu1 Quantum efficiency for uncaging with one-photon excitation at 365 nm [3]: 0.019
- εQu1 One-photon action cross section (product of molar absorptivity and photolysis quantum yield) at 365 nm [3]: 329 M⁻¹ cm⁻¹
- δu (740 nm) uncaging action cross-section for two-photon excitation ([4]; 740 nm): 0.98 ± 10^−50 cm^4s/photon
- δu (800 nm) uncaging action cross-section for two-photon excitation ([4]; 800 nm): 0.37 ± 10^−50 cm^4s/photon
- Qf1 Quantum efficiency for fluorescence with one-photon excitation [5]: 0.38
- λem [5]: 474 nm
- ε Molar Absorptivity at 365 nm ([5]; 365 nm): 17,300 M^−1cm^−1
- ε Molar Absorptivity at 400 nm ([5]; 400 nm): 5,400 M^−1cm^−1
- λmax Wavelength of peak absorbance ([5]; pH 7.2): 368 nm
- ε Molar absorptivity at absorbance peak ([5]; pH 7.2, at absorbance peak): 17,470 M^−1cm^−1
SMILES: O=C(O)CC[C@H](NC(=O)OCc1cc(=O)oc2cc(O)c(Br)cc12)C(=O)O [Compound 7, N-(6-Bromo-7-hydroxycoumarin-4-yl)methoxycarbonyl glutamate]
- Lifetime of triplet state through which solvolysis occurs [1]: about 1 μs
- Response to laser scans after application of caged compound (brain slices; Ti:sapphire laser raster-scanned across cell bodies and dendrites): scans evoked inward currents
- Change in holding current on application of caged compound (intrinsic agonist activity) (brain slices; whole-cell recordings, 15 cells, before photolysis): did not cause detectable changes in holding current
- Neuron response amplitude, percent of maximum amplitude (rat cortical neurons): 80%
